Measurements reported in patent publication US6407139B1, “Neovascularization inhibitor” (Kissei Pharmaceutical Co., Ltd., priority 1996, dated 2002).

Experiments:
Assay type in all cases: cell-based
[1] = system: human microvascular endothelial cells; experiment: Tube formation of human microvascular endothelial cells on matrigel (number of formed network); settings: 18 hours incubation, various concentrations, FIG. 3
Experimental: (§1) According to the method of Example 1 (1), human microvascular endothelial cells were cultured to prepare a cell suspension. Number of viable cells was counted under a phase-contrast microscopy using a hemocytometer and cell concentration was adjusted to 4×10^4 cells/ml.
Tranilast was added to 1% aqueous sodium bicarbonate solution to prepare 0.5% solution and dissolved by warming at 70° C. The solution was sterilized with millipore filter and diluted with MVE medium to a prescribed final concentration.
(§2) An aliquot (0.25 ml) of matrigel (10 mg/ml, Becton Dickinson Labware) was added to a 24-well culture plate (Corning) and was then allowed to solidify by incubation at 37° C. for 1 hour. Suspension (0.25 ml) of human microvascular endothelial cells (4×10^4 cells) and MVE medium (0.25 ml) containing various concentrations of Tranilast were added onto the gel.

[2] = system: human microvascular endothelial cells; experiment: Inhibition of proliferation of human microvascular endothelial cells; settings: normal human dermal microvascular endothelial cells, 2 days incubation with various concentrations, FIG. 1
Experimental: Normal human dermal microvascular endothelial cells (Cell Systems Corporation) were subcultured in a medium (MVE medium, Cell Systems Corporation) for endothelial cell culture and used for the study. At the logarithmic growth phase, the medium was aspirated and cells were washed with phosphate-buffered saline (PBS(−)) which was added gentlely. Then, the PBS(−) was aspirated, an aliquot of 0.25% trypsin solution containing 0.02% EDTA was added to the culture plate, and the morphology of cells was observed under a phase-contrast microscopy. When cells were going to be round, an equal value of MVE medium was added to the trypsin solution to stop the action of trypsin. Attached cells were harvested from the plate by pipetting the medium using a slender pasture pipette. […] Number of viable cells in an aliquot of the suspension was counted under a phase-contrast microscopy using a hemocytometer. […]
Cell suspension (1 ml) was added to collagen-coated 6-well plate(Toyobo Engineering Co., Ltd.) and cultured at 37° C. under a humidified atmosphere of 5% CO2 in air. […] After harvesting cells from the plate by pipetting using a pasture pipete, number of viable cells was counted using a hemocytometer.
(§3) Mean and standard variation value of each group were calculated. […]

[3] = system: human microvascular endothelial cells; experiment: Tube formation of human microvascular endothelial cells on matrigel (length of tube structures); settings: 18 hours incubation, various concentrations, FIG. 4
Experimental: as §1
Tranilast was added to 1% aqueous sodium bicarbonate solution to prepare 1.0% solution and dissolved by warming at 70° C. The solution was sterilized with millipore filter and diluted with MVE medium to a prescribed final concentration.
as §2, with “gel. After 18 hours incubation at 37° C., 5 random fields of one well were photographed at ×40 magnification using a phase-contrast microscopy. The lengths of the tube structures were measured and the mean value was calculated.” for “gel.”

[4] = system: human microvascular endothelial cells; experiment: Inhibition of chemotaxis of human microvascular endothelial cells to VEGF; settings: chemotaxis to 100 ng/ml VEGF, 5 hours, 96-well micro chemotaxis chamber, FIG. 2
Experimental: According to the method of Example 1 (1), human microvascular endothelial cells were cultured to prepare a cell suspension. Number of viable cells was counted under a phase-contrast microscopy using a hemocytometer and cell concentration was adjusted to 2×10^4 cells/ml.
Tranilast was added to 1% aqueous sodium bicarbonate solution to prepare 0.55% solution and dissolved by warming at 70° C. The solution was sterilized with millipore filter and diluted with DMEM+Ham (1:1) medium to a prescribed final concentration.
Chemotaxis of human dermal microvascular endothelial cells (prepared in (1)) to vascular endothelial growth factor (VEGF) was studied using a 96-well micro chemotaxis chamber (Neuro Probe Inc.). An aliquot (32 μl) of DMEM+Ham (1:1) medium containing 100 ng/ml of VEGF, 0.1% bovine serum and various concentrations of Tranilast was added to the lower cavity of the chemotaxis chamber. An aliquot (50 μl) of medium containing cell suspension and Tranilast was added to the upper cavity of the chamber. Polycarbonate filter (10 μm thickness with 8 μm pore size; Neuro Probe Inc.) coated with type-1 collagen was used for the chemotaxis membrane. […] Number of migrated cells was counted in 5 random fields at ×400 magnification under a phase-contrast microscopy and mean chemotaxis cell number was calculated.
as §3

**Q.** What does the source list for `COc1ccc(/C=C/C(=O)Nc2ccccc2C(=O)O)cc1OC` [Tranilast, N-(3,4-Dimethoxycinnamoyl)anthranilic acid]?
**A.** number of the formed network (tube formation) [1]: significantly reduced in a concentration-dependent manner; proliferation of human microvascular endothelial cells (number of viable cells) [2]: significantly suppressed; length of the tube structure (tube formation) [3]: significantly reduced in a concentration-dependent manner; chemotaxis of human microvascular endothelial cells (number of migrated cells) [4]: significantly suppressed
